The values below come from US11970489B1, “4-[(substituted 1H-benzimidazol-2-ylsulfanyl)methyl]-6-substituted-2H-chromen-2-ones as larvicidal agents” (KING FAISAL UNIVERSITY, priority 2023, dated 2024).

What is called melting point is the temperature of the solid-liquid transition. By mortality is commonly meant the percentage killed.

Like-named read-outs stand apart in the source and are kept apart here.

One series concerns Anopheles arabiensis. Kind of series: Larvicidal screening (WHO protocol), 3rd instar larvae. The class given is in vivo. How it is done:
Anopheles arabiensis was used in the study according to the protocol described by WHO (1975) guidelines in an insectary simulating the temperature (27.5° C.), humidity (70%), and lighting (12/12) of a malaria-endemic environment. One mL of test compound (1 mg/mL) was added to 1 mL of acetone and followed by […] of distilled water to obtain a final concentration of 4 μg/mL. Thirty individuals of 3rd instar larvae were introduced into a container. Negative control was set up using the solvent (acetone) and distilled water, and a positive control included Temephos, which is an active emulsified organophosphate larvicidal used by malaria control programs. Larval mortality was examined for each container separately for 24 h and fed specially made cat food that contained less oil/fat content. The percentage of mortality was determined relative to the initial number of larvae exposed.
Differences in larval mortality between treatments were assessed with generalized linear models using a quasi-Poisson link function. Anopheles arabiensis mortality was the dependent variable, while fixed effects were test compounds and observation period (24 and 48 h). A p-value <0.05 was considered statistically significant. Throughout the text, the results are presented as the adjusted mean the standard error.

Take `CC(C)(C)c1ccc2oc(=O)cc(CSc3nc4ccccc4o3)c2c1`: the melting point is 212 to 214 °C.

As to `CC(C)(C)c1ccc2oc(=O)cc(CSc3nc4ccccc4s3)c2c1` [Compound 3i, 4-[(1,3-Benzothiazol-2-ylsulfanyl)methyl]-6 tert-butyl-2H-chromen-2-one], the mortality at 4 µg/mL in the series with Anopheles arabiensis (24 h, read-out: Mortality 24 h) was found to be 89.9 ± 2.44%; in the series on Anopheles arabiensis (48 h, read-out: Mortality 48 h), 94.7 ± 2.11%.

As for `Cc1nnc(SCc2cc(=O)oc3ccc(C(C)(C)C)cc23)s1` [Compound 3j, 4-{[(5-Methyl-1,3,4-thiadiazol-2-yl)sulfanyl]methyl}-6 tert-butyl-2H-chromen-2-one], the mortality at 4 µg/mL in the series with Anopheles arabiensis (24 h, read-out: Mortality 24 h) stood at 94.7 ± 2.61%; in the series on Anopheles arabiensis (48 h, read-out: Mortality 48 h), 95.1 ± 2.09%.

`Cc1ccc2oc(=O)cc(CSc3nc4ccccc4s3)c2c1` showed a melting point of 192 to 194 °C.

Compound `Cc1ccc2oc(=O)cc(CSc3nc4ccccc4[nH]3)c2c1` came in with a melting point of 190 to 192 °C.

Turning to `Cc1ccc2oc(=O)cc(CSc3nnc(C)s3)c2c1` [Compound 3e, 6-Methyl-4-{[(5-methyl-1,3,4-thiadiazol-2-yl)sulfanyl]methyl}-2H-chromen-2-one], the mortality at 4 µg/mL came out at 77.2 ± 2.02% in the series with Anopheles arabiensis (24 h, read-out: Mortality 24 h) and 82.2 ± 1.93% in the series with Anopheles arabiensis (48 h, read-out: Mortality 48 h).

As to `COP(=S)(OC)Oc1ccc(Sc2ccc(OP(=S)(OC)OC)cc2)cc1` [Temephos, reference compound], the mortality at 4 µg/mL with Anopheles arabiensis (24 h, read-out: Mortality 24 h) is 98.9 ± 2.7%; in the series on Anopheles arabiensis (48 h, read-out: Mortality 48 h), 100 ± 2.71%.

`Cc1ccc2oc(=O)cc(CSc3nc4ccccc4o3)c2c1` [Compound 3c, 4-[(1,3-Benzoxazol-2-ylsulfanyl)methyl]-6-methyl-2H-chromen-2-one]: the mortality at 4 µg/mL in the series on Anopheles arabiensis (24 h, read-out: Mortality 24 h) came to 70.1 ± 2.29%; with Anopheles arabiensis (48 h, read-out: Mortality 48 h), 75.8 ± 2.21%.

In the case of `COc1ccc2nc(SCc3cc(=O)oc4ccc(C)cc34)[nH]c2c1`, the melting point is 176 to 178 °C.

As for `CC(C)(C)c1ccc2oc(=O)cc(CSc3nc4ccccc4[nH]3)c2c1`, the melting point is 189 to 190 °C.
